The values that follow come from patent US9718905B2, “Polythiophene, water-soluble electrically conductive polymer using it, and method for producing it” (TOSOH CORPORATION, priority 2012, dated 2017).

A short description of data set [1]: Storage and handling in air. The format is physicochemical.
Data set [2] in a line: Water solubility of thiophene compound (monomer). The format is physicochemical. Here is the method: The thiophene compound used as the material is more preferably one having water solubility to such an extent that it is dissolved in water at room temperature or with heating in an amount of at least 0.5 wt %.
The thiophene compound used as a material is more preferably one having water solubility to such an extent that it is soluble in water at room temperature or with heating in an amount of at least 0.5 wt %.

Regarding `CN(CCS(=O)(=O)[O-])CC1COc2cscc2O1.[Na+]` (stereo not drawn) [Example 2, Sodium N-methyl-N-(2,3-dihydro-thieno[3,4-b][1,4]dioxin-2-ylmethyl)-2-aminoethanesulfonate], the “storage and handling in air” value in data set [1] is “could be stored and handled in air”. Moreover, in data set [2] (at room temperature), the water solubility result was “at least 1 wt %”.

For `O=S(=O)([O-])CC1COc2cscc2O1.[Na+]` (stereo not drawn) [Example 3, Sodium 2,3-dihydro-thieno[3,4-b][1,4]dioxin-2-ylmethanesulfonate], the “storage and handling in air” value in data set [1] is “could be stored and handled in air”. Moreover, the water solubility result in data set [2] (at room temperature) is recorded as “at least 1 wt %”.

With `O=S(=O)([O-])c1ccc(OCC2COc3cscc3O2)cc1.[K+]` (stereo not drawn) [Example 17, Potassium O-(2,3-dihydro-thieno[3,4-b][1,4]dioxin-2-ylmethyl)-4-phenolsulfonate], the “storage and handling in air” value in data set [1] was “could be stored and handled in air”. Besides, in data set [2] (temperature not stated), the water solubility result is listed as “at least 1 wt %”.

On to `O=S(=O)([O-])CCCCCCC1COc2cscc2O1.[Na+]` (stereo not drawn) [Example 4, sodium 6-(2,3-dihydro-thieno[3,4-b][1,4]dioxin-2-yl)-1-hexanesulfonate], for which the “storage and handling in air” value in data set [1] was “could be stored and handled in air”. The water solubility entry in data set [2] (at room temperature) is recorded as “at least 1 wt %”.

As for `O=S(=O)([O-])c1ccc(OCC2COc3cscc3O2)cc1.[Na+]` (stereo not drawn) [Example 18, sodium O-(2,3-dihydro-thieno[3,4-b][1,4]dioxin-2-ylmethyl)-4-phenolsulfonate], the “storage and handling in air” value in data set [1] was “could be stored and handled in air”. Besides, the water solubility entry in data set [2] (temperature not stated) is listed as “at least 1%”.

`O=S(=O)([O-])CCNCC1COc2cscc2O1.[K+]` (stereo not drawn) [Example 1, Potassium N-(2,3-dihydro-thieno[3,4-b][1,4]dioxin-2-ylmethyl)-2-aminoethanesulfonate]: the “storage and handling in air” value in data set [1] is “could be stored and handled in air”. Besides, the water solubility entry in data set [2] (at room temperature) is recorded as “at least 1 wt %”.
